From US6680058B1, “Compositions and methods for contraception in or sterilization of mammals” (Board of Supervisors of Louisiana State University and …, priority 1997, dated 2004)
Where no end group is shown, it is not given here.

Tests used:
[1] = tested on: sexually mature, Sprague-Dawley female rats; assay: Sexually mature Sprague-Dawley female rats, single intravenous treatment, necropsy 48 or 96 hours after treatment, H&E and PAS stain (Examples 15-22); type: in vivo, rat; settings: for appearance of the pituitary glands: 1 mg i.v.
Protocol: Eight sexually mature, Sprague-Dawley female rats were randomly assigned to one of eight treatments. Each group of rats received a single treatment intravenously, as described below. Rats were sacrificed and necropsied either 48 or 96 hours after treatment. The ovaries, uterus, pancreas, liver, spleen, lungs, heart, thyroid, and adrenal glands were fixed in 10% buffered formalin; sectioned; and stained with H&E (hematoxylin and eosin) stain; except that the pituitary glands were stained with PAS (periodic acid-Schiff) stain with no counter-stain. The treatments were selected so that each animal received an equimolar amount of the compound with which it was treated.

[2] = tested on: GnRH receptor-bearing cells in the brain (neurons) and in the pituitary (gonadotrophic cells); assay: Summary of the in vivo studies: selectivity of the GnRH-hecate conjugate; set-up: species or system rats and rabbits
[3] = tested on: pituitary basophilic (gonadotropic) cells; assay: Adult female rat pituitary gland sections in tissue culture, histology ten hours after treatment (Examples 1-6); type: cell-based
Protocol: The pituitary gland of an adult female rat was harvested and divided into six sections of approximately equal size. One section was placed in each of six wells containing tissue culture medium at 37° C. A different treatment was applied to each well, as described below. Ten hours after treatment, the tissue from each well was fixed, and the histology of each was examined microscopically.

[4] = tested on: sexually immature female rats; assay: Thirty-three-day-old sexually immature female rats, intravenous, sacrificed 14 days after treatment, histology and immunocytochemistry (Examples 35-38); type: in vivo, rat; settings: Treatment 37: 0.5 mg i.v.
Protocol: Another set of experiments was performed to study the in vivo effects of the GnRH-hecate conjugate on female rats and rabbits. The ovaries, uterus, oviducts, adrenals, spleen, thyroids, pancreas, liver, lungs, and heart were processed for histological analysis. […] The immunocytochemical staining procedures we used followed generally the procedures of M. Rahmanian et al., “Histological and immunocytochemical characterization of pituitary cell types in ponies,” Proc. 13th Soc. Equine Nutrition & Phys. Symp., pp. 348-349 (1993); M. Rahmanian et al., “Immunocytochemical localization of luteinizing hormone and follicle-stimulating hormone in the equine pituitary,” J. Anim. Sci., vol. 76, pp. 839-846 (1998); M. Rahmanian et al., “Immunocytochemical localization of prolactin and growth hormone in the equine pituitary,” Animal Sci., vol. 75, pp. 3010-3018 (1997); and P. Melrose et al., “Comparative topography of the immunoreactive alpha-melanocyte-stimulating hormone neuronal system in the brains of horses and rats,” Brain Beh. & Evol., vol. 32, pp. 226-235 (1988).
Brains were serially sectioned on a Vibrotome from the level of the diagonal band of Broca to the mammillary body. Alternate sections were consecutively divided into four to five dishes, and sections in alternate dishes were stained with cresyl violet, or were stained immunocytochemically for GnRH or the GnRH precursor, VP, OXY, or tyrosine hydroxylase (the rate-limiting enzyme in catecholamine synthesis). In addition to the staining procedures cited above, we also used the immunocytochemical staining procedures of P. Melrose et al., “Distribution and morphology of immunoreactive gonadotropin-releasing hormone (GnRH) neurons in the basal forebrain of ponies,” J. Comp. Neurol. vol. 339, pp. 269-287 (1994); and P. Melrose et al., “Topography of oxytocin and vasopressin neurons in the forebrain of Equus caballus: Further support of proposed evolutionary relationships for proopiomelanocortin, oxytocin and vasopressin neurons,” Brain, Beh. & Evol., vol. 33, pp. 193-204 (1989).
Thirty-three-day-old, sexually immature female rats were given intravenous administrations as follow:
Animals were sacrificed 14 days after treatment.

[5] = tested on: sexually mature, mixed breed, female rats; assay: Sexually mature female rats, double intravenous treatment, necropsy two weeks after treatment (Examples 9-14); type: in vivo, rat
Source text: Eighteen sexually mature, mixed breed, female rats were randomly assigned to one of six groups containing three rats each. Each group of rats received a double treatment intravenously, as described below. Two weeks after the treatment, the rats were sacrificed and necropsied. The reproductive and endocrine organs were sectioned, weighed, and examined histologically.

[6] = tested on: sexually mature female New Zealand rabbits; assay: Sexually mature female New Zealand rabbits, intravenous GnRH-hecate, GnRH challenge day 46, histology day 47 (Examples 44-46); type: in vivo, rabbit
Protocol: Seven sexually mature female New Zealand rabbits were injected intravenously with saline containing GnRH-hecate as follows:
Forty-six days later all rabbits were injected intramuscularly with 100 μg GnRH. Blood samples were collected at 0, 1, 4, and 24 hours, and LH and FSH levels in the blood samples were measured by radioimmunoassay. […] The rabbits were sacrificed the next day (day 47) for postmortem histological analysis. […] Ovarian and pituitary weights were reduced by the 10 mg GnRH-hecate treatment.

[7] = tested on: sexually immature female rats; assay: Sexually immature (33 day old) female rats, intravenous GnRH-hecate dose series, sacrificed at 24 hours or 14 days (Examples 39-43); type: in vivo, rat; settings: for abnormal GnRH-receptor-containing neurons: sacrificed fourteen days after treatment
Protocol: Sexually immature (33 day old) female rats (randomly allocated into groups of three) were injected intravenously with saline or GnRH-hecate in saline as follows:
Animals were sacrificed at 24 hours or at 14 days after treatment. […] In the rats sacrificed fourteen days after treatment, 66% and 87% of the GnRH-receptor-containing neurons were abnormal in the rats that had received 1.0 and 1.5 mg of GnRH-hecate, respectively. Axonal degeneration in the 1.5 mg GnRH-hecate group was accompanied by over 90% reduction in median eminence staining for GnRH.

[8] = Treatment 10: two 0.5 mg i.v. injections 24 hours apart, two weeks
[9] = Treatment 14: fusion peptide further purified by HPLC, two 0.5 mg i.v. injections 24 hours apart
[10] = 0.1 to 1.5 mg i.v., 24 hours or 14 days

GnRH-hecate: fusion peptide of modified GnRH bonded directly to the lytic peptide hecate, SEQ. ID NO. 3 (QHWSYGLRPGFALALKALKKALKKLKKALKKAL; ends and bridges not checked; also: GnRH part modified, modification not given here)
appearance of the pituitary glands ([1]; sacrificed 48 hours after injection): slightly enlarged, hyperemic, and edematous
appearance of the pituitary glands ([1]; sacrificed 96 hours after injection): slightly hyperemic, but of expected size
gross lesions in the organs ([1]; 1 mg in 100 μL saline (2.7 mM) i.v., sacrificed 48 or 96 hours after injection): No gross lesions were noted in the organs of any of the four animals, other than the pituitary
changes in other endocrine and non-endocrine tissues (except for the ovary) [2]: No changes
changes in pituitary cells that lacked GnRH receptors [2]: No changes
cytotoxic changes in neurons that lacked GnRH receptors [2]: No cytotoxic changes
effect on GnRH receptor-bearing cells [2]: selectively damaged GnRH receptor-bearing cells in the brain (neurons) and in the pituitary (gonadotrophic cells)
histology of pituitary tissue after treatment ([3]; 50 μM fusion peptide, ten hours): Widespread basophilic (gonadotropic) cellular destruction
histology of pituitary tissue after treatment ([3]; initial application of fusion peptide, second application two hours later): virtually destroyed, with only stromal cells remaining
reduction of pituitary weights compared to the two GnRH control groups ([4]; 33-day-old female rat, 14 days after treatment): 13%
adrenocorticotropic hormone levels in the pars distalis ([4]; 14 days): reduced
cell bodies of GnRH-stained neurons in hypophysiotropic areas of the brain ([4]; 14 days): frequently deformed
histology of the C1 and C3 fields of the hippocampus ([4]; 14 days): histological damage to cells
number of alpha-MSH-stained cells in the pars distalis ([4]; 14 days): increased
pathological changes in any other tissues ([4]; 14 days): No pathological changes
reduction of the numbers of bLH-specific gonadotropes compared to the two GnRH control groups ([4]; 14 days): 92%
VP staining in the paraventricular nucleus ([4]; 14 days, may have been caused by a precipitate): increased staining of parvicellular VP neurons in the paraventricular nucleus
ovarian function / follicular development ([5]; Treatment 10: total 1.0 mg in saline i.v. as two 0.5 mg injections 24 hours apart, two weeks): arrest of normal ovarian follicular development
corpora lutea and follicles [5, 8]: Few corpora lutea were present, and those that were present appeared old. Follicles were large, and had not ruptured
pituitary size [5, 8]: slightly smaller than the pituitaries from the saline control group
uterine morphology [5, 8]: consistent with hormonal inactivity
corpora lutea and follicles [5, 9]: Few corpora lutea were present, and those that were present appeared old. Follicles were large, and had not ruptured
uterine morphology [5, 9]: consistent with hormonal inactivity
ovarian function / follicular development ([5]; Treatment 14: fusion peptide further purified by HPLC, two 0.5 mg i.v. injections 24 hours apart, two weeks): arrest of normal ovarian follicular development
LH release in response to 100 μg GnRH i.m. ([6]; 5 mg or 10 mg i.v., challenge forty-six days later, radioimmunoassay): released LH in response to the GnRH
cells staining alpha-MSH in the pituitary ([6]; 5 mg or 10 mg i.v., day 47): increased numbers
cells staining for LH in the pituitary ([6]; 5 mg or 10 mg i.v., day 47): reduced numbers
hippocampus and other areas of the brain containing high concentrations of GnRH ([6]; 5 mg or 10 mg i.v., day 47): not discernibly affected
immunoreactive GnRH in CNS areas normally containing cell bodies ([6]; 5 mg or 10 mg i.v., day 47): faint and diffusely localized
numbers of GnRH-induced ovulations ([6]; 5 mg or 10 mg i.v., day 47): reduced
numbers of corpora lutea ([6]; 5 mg or 10 mg i.v., day 47): reduced
numbers of tertiary follicles ([6]; 5 mg or 10 mg i.v., day 47): reduced
reduction in number of normal individual cell bodies ([6]; 5 mg or 10 mg i.v., day 47): at least 50%
terminal fields, which normally contain the axons of GnRH receptor neurons ([6]; 5 mg or 10 mg i.v., day 47): not stained for GnRH
number of PAS-stained pituitary cells in the pars distalis, relative to control rabbits ([6]; 5 mg or 10 mg i.v., day 47, control = 100%): 177%
ovarian weights ([6]; 10 mg i.v., day 47): reduced
pituitary weights ([6]; 10 mg i.v., day 47): reduced
abnormal GnRH-receptor-containing neurons ([7]; 1.0 mg i.v.): 66%
reduction in median eminence staining for GnRH ([7]; 1.5 mg i.v.): over 90%
abnormal GnRH-receptor-containing neurons ([7]; 1.5 mg i.v.): 87%
VP staining in the CNS [7, 10]: not altered
precipitate in the brain [7, 10]: no precipitate was found in the brain
morphology of GnRH-receptor-containing neurons ([7]; treatments with higher levels of GnRH-hecate): a large number of GnRH-receptor-containing neurons having abnormal morphologies
